Measurements from ChEMBL document CHEMBL1212738, “Phenotypic and genotypic characterization of Enterobacteriaceae with decreased susceptibility to carbapenems: results from large hospital-based surveillance studies in China” (2010).
Converted amounts (≈) assume the structure as drawn.

Key:
[1] = test system: Klebsiella pneumoniae; experiment: Antimicrobial activity against carbapenem-resistant Klebsiella pneumoniae SZ61 deficient in TEM-1, SHV-1a, CMY-2, ompK35/36 by CLSI method; assay type: functional
[2] = test system: Citrobacter freundii; experiment: Antimicrobial activity against Citrobacter freundii SZ62 expressing IMP-4, TEM-1, CMY-2, qnrS1, aac(6')-Ib-cr by CLSI method; assay type: functional
[3] = test system: Klebsiella pneumoniae; experiment: Antimicrobial activity against carbapenem-resistant Klebsiella pneumoniae PU8 deficient in SHV-11, DHA-1, aac(6')-Ib-cr, ompK35/36 by CLSI method; assay type: functional
[4] = test system: Escherichia coli; experiment: Antimicrobial activity against Escherichia coli PU101T expressing CMY-2 by CLSI method; assay type: functional
[5] = test system: Klebsiella pneumoniae; experiment: Antimicrobial activity against Klebsiella pneumoniae WH76 expressing IMP-4, TEM-1, SHV-14, CTX-M-3, qnrS1 by CLSI method; assay type: functional
[6] = test system: Escherichia coli; experiment: Antimicrobial activity against Escherichia coli PU60T expressing CMY-2 by CLSI method; assay type: functional
[7] = test system: Klebsiella aerogenes; experiment: Antimicrobial activity against carbapenem-resistant Enterobacter aerogenes WH85 deficient in TEM-1, CTX-M-3, ompC/F by CLSI method; assay type: functional
[8] = test system: Klebsiella aerogenes; experiment: Antimicrobial activity against carbapenem-resistant Enterobacter aerogenes PU41 deficient in CTX-M-14, DHA-1, qnrS1, ompC DEc, ompF by CLSI method; assay type: functional
[9] = test system: Escherichia coli; experiment: Antimicrobial activity against Escherichia coli ZJ86T expressing KPC-2 by CLSI method; assay type: functional
[10] = test system: Klebsiella pneumoniae; experiment: Antimicrobial activity against carbapenem-resistant Klebsiella pneumoniae SX67 deficient in SHV-2, CTX-M-14, DHA-1, qnrB6/S1, aac(6')-Ib-cr, ompK35/36 by CLSI method; assay type: functional
[11] = test system: Citrobacter freundii; experiment: Antimicrobial activity against Citrobacter freundii SZ63T expressing IMP-4, qnrS1by CLSI method; assay type: functional
[12] = test system: Klebsiella pneumoniae; experiment: Antimicrobial activity against carbapenem-resistant Klebsiella pneumoniae ZJ18 deficient in KPC-2, SHV-28, DHA-1, ompK35 by CLSI method; assay type: functional
[13] = test system: Klebsiella pneumoniae; experiment: Antimicrobial activity against carbapenem-resistant Klebsiella pneumoniae XJ81 deficient in TEM-1, SHV-12, DHA-1, aac(6')-Ib, ompK35/36 by CLSI method; assay type: functional
[14] = test system: Escherichia coli; experiment: Antimicrobial activity against Escherichia coli C600 transconjugant WH77T expressing IMP-4, TEM-1, CTX-M-3, qnrS1 by CLSI method
[15] = test system: Enterobacter cloacae; experiment: Antimicrobial activity against carbapenem-resistant Enterobacter cloacae SZ92 deficient in IMP-4, TEM-1, CTX-M-14, DHA-1, qnrB10/B4-like, aac(6')-Ib, ompC by CLSI method; assay type: functional
[16] = test system: Escherichia coli; experiment: Antimicrobial activity against Escherichia coli ZJ87 expressing KPC-2, TEM-1, ompC by CLSI method; assay type: functional
[17] = test system: Klebsiella pneumoniae; experiment: Antimicrobial activity against Klebsiella pneumoniae FZ49T expressing IMP-8, TEM-1, CTX-M-14, qnrB2, aac(6')-Ib by CLSI method; assay type: functional
[18] = test system: Enterobacter cloacae; experiment: Antimicrobial activity against carbapenem-resistant Enterobacter cloacae RJ94 deficient in IMP-4, TEM-1, CTX-M-3, ompC by CLSI method; assay type: functional
[19] = test system: Escherichia coli; experiment: Antimicrobial activity against Escherichia coli HX74T expressing CTX-M-3 by CLSI method; assay type: functional
[20] = test system: Citrobacter freundii; experiment: Antimicrobial activity against Citrobacter freundii RJ78 expressing CMY-2, qnrA1, aac(6')-Ib-cr, ompC by CLSI method; assay type: functional
[21] = test system: Klebsiella pneumoniae; experiment: Antimicrobial activity against Klebsiella pneumoniae ZJ68T expressing CTX-M-15 by CLSI method; assay type: functional
[22] = test system: Escherichia coli; experiment: Antimicrobial activity against carbapenem-resistant Escherichia coli HX74 deficient in TEM-1, CTX-M-14, CTX-M-3, aac(6')-Ibcr, ompC/F by CLSI method; assay type: functional
[23] = test system: Escherichia coli; experiment: Antimicrobial activity against Escherichia coli C600 transconjugant WH76T expressing IMP-4, TEM-1, CTX-M-3, qnrS1 by CLSI method
[24] = test system: Klebsiella pneumoniae; experiment: Antimicrobial activity against carbapenem-resistant Klebsiella pneumoniae ZJ71 deficient in KPC-2, TEM-1, SHV-11, CTX-M-14, ompK35 by CLSI method; assay type: functional
[25] = test system: Klebsiella pneumoniae; experiment: Antimicrobial activity against Klebsiella pneumoniae ZJ71T expressing KPC-2 by CLSI method; assay type: functional
[26] = test system: Escherichia coli; experiment: Antimicrobial activity against carbapenem-resistant Escherichia coli PU43 deficient in TEM-1, CTX-M-14, aac(6')-Ib, ompC/F by CLSI method; assay type: functional
[27] = test system: Klebsiella pneumoniae; experiment: Antimicrobial activity against carbapenem-resistant Klebsiella pneumoniae FZ49 deficient in IMP-8, TEM-1, SHV-11, CTX-M-14, qnrB2, aac(6')-Ib, ompK35/36 by CLSI method; assay type: functional
[28] = test system: Escherichia coli; experiment: Antimicrobial activity against Escherichia coli C600 transconjugant GZ66T expressing SHV-11, DHA-1 by CLSI method
[29] = test system: Enterobacter cloacae; experiment: Antimicrobial activity against carbapenem-resistant Enterobacter cloacae WH103 deficient in IMP-4, TEM-1, CTX-M-3, qnrS1, ompC by CLSI method; assay type: functional
[30] = test system: Enterobacter cloacae; experiment: Antimicrobial activity against carbapenem-resistant Enterobacter cloacae NJ90 deficient in CTX-M-14, ompC/F by CLSI method; assay type: functional
[31] = test system: Klebsiella pneumoniae; experiment: Antimicrobial activity against carbapenem-resistant Klebsiella pneumoniae PU105 deficient TEM-1, SHV-12, CTX-M-14, DHA-1, qnrB10/B4-like, aac(6')-Ib-cr, ompK35/36 by CLSI method; assay type: functional
[32] = test system: Enterobacter cloacae; experiment: Antimicrobial activity against carbapenem-resistant Enterobacter cloacae GX24 deficient in TEM-1, DHA-1, aac(6')-Ib, ompC by CLSI method; assay type: functional
[33] = test system: Klebsiella pneumoniae; experiment: Antimicrobial activity against Klebsiella pneumoniae CY1T expressing SHV-11, DHA-1 by CLSI method; assay type: functional
[34] = test system: Escherichia coli; experiment: Antimicrobial activity against carbapenem-resistant Escherichia coli PU102 deficient in TEM-1, CTX-M-14, CMY-2, aac(6')-Ib, ompC DEc, ompF by CLSI method; assay type: functional
[35] = test system: Klebsiella pneumoniae; experiment: Antimicrobial activity against Klebsiella pneumoniae ZJ99 expressing KPC-2, CTX-M-3, qnrS1, ompK35 DE by CLSI method; assay type: functional
[36] = test system: Klebsiella pneumoniae; experiment: Antimicrobial activity against carbapenem-resistant Klebsiella pneumoniae GZ84 deficient in SHV-11, aac(6')-Ib-cr, ompK35 by CLSI method; assay type: functional
[37] = test system: Klebsiella pneumoniae; experiment: Antimicrobial activity against carbapenem-resistant Klebsiella pneumoniae CY75 deficient in SHV-11, DHA-1, ompK35/36 by CLSI method; assay type: functional
[38] = test system: Enterobacter cloacae; experiment: Antimicrobial activity against carbapenem-resistant Enterobacter cloacae NJ88 deficient in CTX-M-14, ompC/F by CLSI method; assay type: functional
[39] = test system: Klebsiella pneumoniae; experiment: Antimicrobial activity against carbapenem-resistant Klebsiella pneumoniae GZ83 deficient in SHV-11, CTX-M-14, ompK35/36 by CLSI method; assay type: functional
[40] = test system: Klebsiella pneumoniae; experiment: Antimicrobial activity against carbapenem-resistant Klebsiella pneumoniae PU104 deficient in TEM-1, SHV-11, CTX-M-15, qnrS1, ompK35/36 by CLSI method; assay type: functional

SMILES	MIC [1] [µg/mL]	MIC [2] [µg/mL]	MIC [3] [µg/mL]	MIC [4] [µg/mL]	MIC [5] [µg/mL]	MIC [6] [µg/mL]	MIC [7] [µg/mL]	MIC [8] [µg/mL]	MIC [9] [µg/mL]	MIC [10] [µg/mL]	MIC [11] [µg/mL]	MIC [12] [µg/mL]	MIC [13] [µg/mL]	MIC [14] [µg/mL]	MIC [15] [µg/mL]	MIC [16] [µg/mL]	MIC [17] [µg/mL]	MIC [18] [µg/mL]	MIC [19] [µg/mL]	MIC [20] [µg/mL]	also measured
CO/N=C(\C(=O)N[C@@H]1C(=O)N2C(C(=O)O)=C(COC(C)=O)CS[C@H]12)c1csc(N)n1 [CEFOTAXIME]	128 (≈ 281 µM)	256 (≈ 562 µM)	128 (≈ 281 µM)	128 (≈ 281 µM)	128 (≈ 281 µM)	16 (≈ 35.1 µM)	> 256	> 256	32 (≈ 70.3 µM)	> 256	256 (≈ 562 µM)	128 (≈ 281 µM)	> 256	256 (≈ 562 µM)	> 256	64 (≈ 141 µM)	128 (≈ 281 µM)	> 256	> 256	256 (≈ 562 µM)	MIC [21]: > 256 µg/mL; MIC [22]: > 256 µg/mL; MIC [23]: 256 µg/mL (≈ 562 µM); MIC [24]: 256 µg/mL (≈ 562 µM); MIC [25]: 16 µg/mL (≈ 35.1 µM); MIC [26]: > 256 µg/mL; MIC [27]: > 256 µg/mL; MIC [28]: 16 µg/mL (≈ 35.1 µM); MIC [29]: > 256 µg/mL; MIC [30]: > 256 µg/mL; MIC [31]: > 256 µg/mL; MIC [32]: 256 µg/mL (≈ 562 µM); MIC [33]: 4 µg/mL (≈ 8.78 µM); MIC [34]: > 256 µg/mL; MIC [35]: 128 µg/mL (≈ 281 µM); MIC [36]: 256 µg/mL (≈ 562 µM); MIC [37]: > 256 µg/mL; MIC [38]: > 256 µg/mL; MIC [39]: > 256 µg/mL; MIC [40]: > 256 µg/mL
CO[C@@]1(NC(=O)Cc2cccs2)C(=O)N2C(C(=O)O)=C(COC(N)=O)CS[C@@H]21 [CEFOXITIN]	> 256	> 256	> 256	> 256	> 256	128 (≈ 299 µM)	256 (≈ 599 µM)	> 256	64 (≈ 150 µM)	> 256	> 256	> 256	> 256	> 256	> 256	64 (≈ 150 µM)	> 256	> 256	16 (≈ 37.4 µM)	> 256	MIC [21]: 16 µg/mL (≈ 37.4 µM); MIC [22]: 64 µg/mL (≈ 150 µM); MIC [23]: > 256 µg/mL; MIC [24]: 16 µg/mL (≈ 37.4 µM); MIC [25]: 32 µg/mL (≈ 74.9 µM); MIC [26]: 128 µg/mL (≈ 299 µM); MIC [27]: > 256 µg/mL; MIC [28]: 128 µg/mL (≈ 299 µM); MIC [29]: > 256 µg/mL; MIC [30]: > 256 µg/mL; MIC [31]: > 256 µg/mL; MIC [32]: > 256 µg/mL; MIC [33]: 64 µg/mL (≈ 150 µM); MIC [34]: > 256 µg/mL; MIC [35]: 32 µg/mL (≈ 74.9 µM); MIC [36]: > 256 µg/mL; MIC [37]: > 256 µg/mL; MIC [38]: > 256 µg/mL; MIC [39]: > 256 µg/mL; MIC [40]: 256 µg/mL (≈ 599 µM)
